Measurements: patent publication US6399542B1, “Alkoxyimino-substituted bicyclic compounds compositions containing the same and method of making such compounds” (Agro-Kanesho Co., Ltd., priority 1997, dated 2002)
Several values for one entry are separate records, joined by “and”; a condition that tells them apart may be missing. Equal entries are not always repeated. Where two headings read alike, the source gives them in different places.

Assays:
Assay type in all cases: in vivo
Erysiphe graminis = assay: Effects on Barley powdery mildew (preventive spray test); details: lesions counted seven days after inoculation
Pyricularia oryzae = details: Rice blast, 7 days after inoculation
Puccinia recondita = assay: Effect on Wheat brown rust (preventive spray test); details: 7 days after inoculation
[1] = system: Psecidoperonospora cubensis; assay: Effect on Cucumber downy mildew (preventive spray test); details: 7 days after inoculation
Chochliobolus miyabeanus = assay: Effect on Rice brown spot (preventive spray test); details: 7 days after inoculation
Phytophthora infestans = details: Tomato late blight, 5 days after inoculation
[2] = conc. of active ingredient 4 ppm
[3] = conc. of active ingredient 20 ppm
[4] = conc. of active ingredient 100 ppm

Structure (SMILES)	Preventive rate (%) (Erysiphe graminis; [2])	Preventive rate (%) (Erysiphe graminis; [3])	Preventive rate (%) (Erysiphe graminis; [4])	Preventive rate (%) (Pyricularia oryzae; [2])	Preventive rate (%) (Pyricularia oryzae; [3])	Preventive rate (%) (Pyricularia oryzae; [4])	Preventive rate (%) (Puccinia recondita; [2])	Preventive rate (%) (Puccinia recondita; [3])	Preventive rate (%) (Puccinia recondita; [4])	Preventive rate (%) [1, 2] [%]	Preventive rate (%) [1, 3] [%]	Preventive rate (%) [1, 4] [%]	Preventive rate (%) (Chochliobolus miyabeanus; [2])	Preventive rate (%) (Chochliobolus miyabeanus; [3])	Preventive rate (%) (Chochliobolus miyabeanus; [4])	Preventive rate (%) (Phytophthora infestans; [2])	Preventive rate (%) (Phytophthora infestans; [3])	Preventive rate (%) (Phytophthora infestans; [4])
COC=C(C(=O)OC)c1ccccc1COc1ccc2c(c1C)OC(C)CC2=NOC (racemic) [d-8]	100	100	100	77	83	100	100	100	100									
CNC(=O)C(=NOC)c1ccccc1COc1ccc2c(c1C)CC(C)C2=NOC (racemic) [f-4]										100	100	100	68	70	90			
COC=C(C(=O)OC)c1ccccc1COc1ccc2c(c1C)C(C)CC2=NOC (racemic) [f-5]	97	100	100	72	89	94	100	100	100	99	100	100	53	94	98	92	100%	100
CO/C=C(/C(=O)OC)c1ccccc1COc1ccc2c(c1C)OC(C)C2=NOC (single isomer, unassigned) [b-4]	98	100	100		89	95	100	100	100								97%	97
CO/C=C(/C(=O)OC)c1ccccc1COc1ccc2c(c1C)OC(C)C2=NOC (single isomer, unassigned) [b-5]	98	98	100		84	95	100	100	100								91%	97
CON=C(C(=O)OC)c1ccccc1COc1cc2c(cc1C)C(=NOC)C(C)C2 (single isomer, unassigned) [f-10]				85	85	90						100					97%	98
CNC(=O)C(=NOC)c1ccccc1COc1cc2c(cc1C)C(=NOC)C(C)C2 (single isomer, unassigned) [f-11]	100	100	100	72	83	100	100	100	100	100	100	100				100	100%	100
COC=C(C(=O)OC)c1ccccc1COc1ccc2c(c1)OCC2=NOC [a-2]		79	100		95	97	98	100	100		100	100		93	96	97	97%	100
CCON=C1COc2c1ccc(OCc1ccccc1/C(=N\OC)C(=O)NC)c2C [a-36]					90	99	100	100	100		100	100	69	93	96		91%	98
C=CCON=C1COc2c1ccc(OCc1ccccc1/C(=N\OC)C(=O)NC)c2C [a-60]		100	100		86	91	100	100	100	100	100	100					97%	97
C=C(Cl)CON=C1COc2c1ccc(OCc1ccccc1/C(=N\OC)C(=O)NC)c2C [a-64]	94	98	100				100	100	100	100	100	100					84%	100
CNC(=O)/C(=N/OC)c1ccccc1COc1ccc2c(c1C)OCC2=NOCC=C(C)C [a-67]							100	100	100		100	100					88%	100
CON=C1c2ccc(OCc3ccccc3/C(=N\OC)C(=O)OC)c(C)c2OC1C (centres unmarked) [b-6]		89	90		84	88					100	100		70	90		92%	94
CO/C=C(/C(=O)OC)c1ccccc1COc1ccc2c(c1)OCCC2=NOC [c-2]		100	100				93	100	100		97	100				84	98%	98
CCCCON=C1CCOc2c1ccc(OCc1ccccc1C(=NOC)C(=O)NC)c2C [c-58]		98	100				98	100	100									100
CNC(=O)C(=NOC)c1ccccc1COc1ccc2c(c1C)OCCC2=NOCC=CCl [c-62]	96	100	100				100	100	100								100%	100
C=C(Cl)CON=C1CCOc2c1ccc(OCc1ccccc1C(=NOC)C(=O)NC)c2C [c-64]		96	100		80	98	99	99	100									
CON=C(C(=O)OC)c1ccccc1COc1ccc2c(c1C)OC(C)(C)CC2=NOC [d-6]				71	77	92		92	99									
COC=C(C(=O)OC)c1ccccc1COc1ccc2c(c1)CCC2=NO [e-1]													87					
CON=C1CCc2cc(OCc3ccccc3C(=NOC)C(=O)OC)c(C)cc21 [e-26]		100	100					98	98	75	100	100		71	91		97%	100
CNC(=O)C(=NOC)c1ccccc1COc1ccc2c(c1)CCC2=NOCC=CCl [e-58]		100	100					100	100	100	100	100					92% and 98%	100
C#CCON=C1CCc2c1ccc(OCc1ccccc1C(=NOC)C(=O)NC)c2C [e-61]		98					100	100	100	100	100	100	84	90	90		98%	100
